According to patent publication US20240294541A1, “COMPOUNDS CONSTITUTING C20-MODIFIED SALINOMYCIN DERIVATIVES, A METHOD FOR OBTAINING THE SAME, A COMPOSITION CONTAINING THE SAME AND A USE OF SAID COMPOUNDS” (FILECLO SPOLKA Z OGRANICZONA ODPOWIEDZIALNOSCIA, priority 2021, published 2024):

Columns and labels:
Format in all cases: cell-based
[1] = test system: NCI-H358 (human lung cancer); experiment: cells; details: Table 4; for IC50: NCI-H358 human lung cancer cells, read-out: IC50 (nM) NCI-H358; for SI NCI-H358: selectivity coefficient vs normal BALB/3T3 fibroblasts
[2] = test system: PLC/PRF/5 (human liver cancer); experiment: cells; details: Table 4; for IC50: PLC/PRF/5 human liver cancer cells, read-out: IC50 (nM) PLC/PRF/5; for SI PLC/PRF/5: selectivity coefficient vs normal BALB/3T3 fibroblasts
[3] = test system: MV-4-11 (human biphenotypic leukaemia); experiment: In vitro cytotoxicity, MTT assay, MV-4-11; details: for IC50: Homo sapiens, MV4-11, read-out: IC50 (nM) MV4-11
Hs294T (human melanoma) = experiment: cells; details: Table 4; for IC50: Hs 294T, Hs294T human melanoma cells, read-out: IC50 (nM) Hs294T; for SI Hs294T: selectivity coefficient vs normal BALB/3T3 fibroblasts
[4] = test system: MIA PaCa-2 (human pancreatic cancer); experiment: cells; details: Table 4; for IC50: MIA PaCa-2 human pancreatic cancer cells, read-out: IC50 (nM) MIA PaCa-2; for SI MIA PaCa-2: selectivity coefficient vs normal BALB/3T3 fibroblasts
[5] = test system: SNU-16 (human gastric cancer); experiment: cells; details: Table 4; for IC50: SNU-16 human gastric cancer cells, read-out: IC50 (nM) SNU-16; for SI SNU-16: selectivity coefficient vs normal BALB/3T3 fibroblasts
[6] = test system: BALB/3T3 (normal mouse fibroblasts); experiment: In vitro cytotoxicity, SRB assay, normal BALB/3T3 fibroblasts; details: Table 4; BALB/3T3 normal mouse fibroblasts; read-out: IC50 (nM) BALB3T3 normal cells
[7] = test system: A2780Cis (cisplatin-resistant human ovarian cancer); experiment: In vitro cytotoxicity, SRB assay, A2780Cis; details: for IC50: Homo sapiens, A2780cis, read-out: IC50 (nM) A2780Cis

Compound | IC50 [1] [nM] | SI NCI-H358 [1] | IC50 [2] [nM] | SI PLC/PRF/5 [2] | SI MV4-11 [3] | IC50 [3] [nM] | IC50 (Hs294T (human melanoma)) [nM] | SI Hs294T (Hs294T (human melanoma)) | IC50 [4] [nM] | SI MIA PaCa-2 [4] | IC50 [5] [nM] | SI SNU-16 [5] | IC50 [6] [nM] | SI A2780Cis [7] | IC50 [7] [nM]
CC[C@@H](C(=O)[C@@H](C)[C@@H](O)[C@H](C)[C@@H]1O[C@@H]([C@@H](CC)C(=O)O)CC[C@@H]1C)[C@H]1O[C@]2(C=C[C@@H](NC(=O)C(=O)NC)[C@]3(CC[C@@](C)([C@H]4CC[C@](O)(CC)[C@H](C)O4)O3)O2)[C@H](C)C[C@@H]1C [FLC-00443-1•Na] | 2620 | 1.57 | 477 | 8.6 | 23.4 | 175 | 3970 | 1.0 | 554 | 7.4 | 6190 | 0.7 | 4110 | 23.3 | 176
CC[C@@H](C(=O)[C@@H](C)[C@@H](O)[C@H](C)[C@@H]1O[C@@H]([C@@H](CC)C(=O)O)CC[C@@H]1C)[C@H]1O[C@]2(C=C[C@@H](NC(N)=O)[C@]3(CC[C@@](C)([C@H]4CC[C@](O)(CC)[C@H](C)O4)O3)O2)[C@H](C)C[C@@H]1C [FLC-00391-1] | 5150 | 0.69 | 584 | 6.1 | 10.2 | 349 | 5870 | 0.6 | 3090 | 1.2 | 1330 | 2.7 | 3570 | 33.0 | 108
CC[C@@H](C(=O)[C@@H](C)[C@@H](O)[C@H](C)[C@@H]1O[C@@H]([C@@H](CC)C(=O)O)CC[C@@H]1C)[C@H]1O[C@]2(C=C[C@@H](NC(=O)OCCF)[C@]3(CC[C@@](C)([C@H]4CC[C@](O)(CC)[C@H](C)O4)O3)O2)[C@H](C)C[C@@H]1C [FLC-00437-1•Na] | 184 | 1.04 | 42.3 | 4.5 | 37.5 | 5.11 | 264 | 0.7 | 45.7 | 4.2 | 342 | 0.6 | 192 | 40.8 | 4.7
CC[C@@H](C(=O)[C@@H](C)[C@@H](O)[C@H](C)[C@@H]1O[C@@H]([C@@H](CC)C(=O)O)CC[C@@H]1C)[C@H]1O[C@]2(C=C[C@@H](NC(=O)Nc3ccc(Cl)c(Cl)c3)[C@]3(CC[C@@](C)([C@H]4CC[C@](O)(CC)[C@H](C)O4)O3)O2)[C@H](C)C[C@@H]1C [FLC-00370-1•Na] | 826 | 5.33 | 144 | 30.5 | 106.9 | 41.2 | 1860 | 2.4 | 489 | 9.0 | 1520 | 2.9 | 4400 | 134.5 | 32.7
CC[C@@H](C(=O)[C@@H](C)[C@@H](O)[C@H](C)[C@@H]1O[C@@H]([C@@H](CC)C(=O)O)CC[C@@H]1C)[C@H]1O[C@]2(C=C[C@@H](NC(=O)C(=O)NCC3CC3)[C@]3(CC[C@@](C)([C@H]4CC[C@](O)(CC)[C@H](C)O4)O3)O2)[C@H](C)C[C@@H]1C [FLC-00442-1•Na] | 340 | 2.22 | 53.9 | 14.0 | 38.9 | 19.4 | 1710 | 0.4 | 102 | 7.4 | 1120 | 0.7 | 754 | 32.3 | 23.3
CC[C@@H](C(=O)[C@@H](C)[C@@H](O)[C@H](C)[C@@H]1O[C@@H]([C@@H](CC)C(=O)O)CC[C@@H]1C)[C@H]1O[C@]2(C=C[C@@H](NC(=O)OC(CCl)CCl)[C@]3(CC[C@@](C)([C@H]4CC[C@](O)(CC)[C@H](C)O4)O3)O2)[C@H](C)C[C@@H]1C [FLC-00440-1•Na] | 60.2 | 1.91 | 9.5 | 12.1 | 32.6 | 3.52 | 130 | 0.9 | 43.6 | 2.6 | 400 | 0.3 | 115 | 26.1 | 4.41
CC[C@@H](C(=O)[C@@H](C)[C@@H](O)[C@H](C)[C@@H]1O[C@@H]([C@@H](CC)C(=O)O)CC[C@@H]1C)[C@H]1O[C@]2(C=C[C@@H](NC(=O)C(=O)NC3CC3)[C@]3(CC[C@@](C)([C@H]4CC[C@](O)(CC)[C@H](C)O4)O3)O2)[C@H](C)C[C@@H]1C [FLC-00441-1•Na] | 930 | 1.21 | 208 | 5.4 | 42.5 | 26.5 | 969 | 1.2 | 373 | 3.0 | 2600 | 0.4 | 1120 | 25.7 | 43.8
CC[C@@H](C(=O)[C@@H](C)[C@@H](O)[C@H](C)[C@@H]1O[C@@H]([C@@H](CC)C(=O)O)CC[C@@H]1C)[C@H]1O[C@]2(C=C[C@@H](NC(=O)c3ccccc3Cl)[C@]3(CC[C@@](C)([C@H]4CC[C@](O)(CC)[C@H](C)O4)O3)O2)[C@H](C)C[C@@H]1C [FLC-00462-1•Na] | 397 | 1.39 | 63.8 | 8.6 | 40.4 | 13.7 | 1810 | 0.3 | 52 | 10.6 | 339 | 1.6 | 552 | 24.5 | 22.5
CC[C@@H](C(=O)[C@@H](C)[C@@H](O)[C@H](C)[C@@H]1O[C@@H]([C@@H](CC)C(=O)O)CC[C@@H]1C)[C@H]1O[C@]2(C=C[C@@H](NC(=O)C3CCCC3)[C@]3(CC[C@@](C)([C@H]4CC[C@](O)(CC)[C@H](C)O4)O3)O2)[C@H](C)C[C@@H]1C [FLC-00455-1•Na] | 54.5 | 5.91 | 60.7 | 5.3 | 112.3 | 2.87 | 140 | 2.3 | 33 | 9.8 | 165 | 2.0 | 323 | 232.6 | 1.39
CC[C@@H](C(=O)[C@@H](C)[C@@H](O)[C@H](C)[C@@H]1O[C@@H]([C@@H](CC)C(=O)O)CC[C@@H]1C)[C@H]1O[C@]2(C=C[C@@H](NC(=O)OCCCCCCCl)[C@]3(CC[C@@](C)([C@H]4CC[C@](O)(CC)[C@H](C)O4)O3)O2)[C@H](C)C[C@@H]1C [FLC-00444-1•Na] | 53.7 | 2.75 | 4 | 36.9 | 98.9 | 1.5 | 627 | 0.2 | 21.3 | 6.9 | 105 | 1.4 | 148 | 98.9 | 1.5
CC[C@@H](C(=O)[C@@H](C)[C@@H](O)[C@H](C)[C@@H]1O[C@@H]([C@@H](CC)C(=O)O)CC[C@@H]1C)[C@H]1O[C@]2(C=C[C@@H](NC(=O)OCCOCCCl)[C@]3(CC[C@@](C)([C@H]4CC[C@](O)(CC)[C@H](C)O4)O3)O2)[C@H](C)C[C@@H]1C [FLC-00454-1•Na] | 434 | 0.72 | 63.1 | 5.0 | 17.8 | 17.6 | 1040 | 0.3 | 45.2 | 6.9 | 103 | 3.0 | 313 | 58.9 | 5.32
CC[C@@H](C(=O)[C@@H](C)[C@@H](O)[C@H](C)[C@@H]1O[C@@H]([C@@H](CC)C(=O)O)CC[C@@H]1C)[C@H]1O[C@]2(C=C[C@@H](NC(=O)C(N)=O)[C@]3(CC[C@@](C)([C@H]4CC[C@](O)(CC)[C@H](C)O4)O3)O2)[C@H](C)C[C@@H]1C [FLC-00376-1•Na] | 5310 | 0.87 | 1360 | 3.4 | 7.0 | 663 |  |  | 1850 | 2.5 |  |  | 4640 | 10.6 | 436
CC[C@@H](C(=O)[C@@H](C)[C@@H](O)[C@H](C)[C@@H]1O[C@@H]([C@@H](CC)C(=O)O)CC[C@@H]1C)[C@H]1O[C@]2(C=C[C@@H](NC(=S)Nc3cccc(C(F)(F)F)c3)[C@]3(CC[C@@](C)([C@H]4CC[C@](O)(CC)[C@H](C)O4)O3)O2)[C@H](C)C[C@@H]1C [FLC-00386-1] | 51.3 |  | 10.2 |  |  |  | 147 |  | 11.3 |  | 10.1 |  |  |  | 
